{"source": "patent US20180000085A1", "about": "“USE OF PICOLINAMIDE COMPOUNDS WITH FUNGICIDAL ACTIVITY” (DOW AGROSCIENCES LLC, priority 2014, published 2018)", "key": {"Zymoseptoria tritici": {"system": "Zymoseptoria tritici", "test": "Leaf blotch of wheat (SEPTTR) disease control on wheat seedlings", "assay_type": "in vivo", "parameters": "key to SEPTTR 1DP, HV activity at 100 ppm (% control rating) / SEPTTR 3DC, HV activity at 100 ppm (% control rating) / SEPTTR disease control, 1DP / SEPTTR disease control, 3DC / SEPTTR 1DP disease control rating, HV activity / SEPTTR 3DC disease control rating, HV activity / SEPTTR 3DC, LV activity at 125.1 g/H (% Control rating) / SEPTTR 1DP, LV activity at 125.1 g/H (% Control rating) / SEPTTR 1DP disease control rating, LV activity at 125.1 g/H / SEPTTR 3DC disease control rating, LV activity at 125.1 g/H / SEPTTR 3DC disease control rating, HV activity at 100 ppm / SEPTTR 1DP disease control rating, HV activity at 100 ppm / HV activity at 100 ppm SEPTTR 3DC (disease control rating) / HV activity at 100 ppm SEPTTR 1DP (disease control rating) / LV activity at 125.1 g/H SEPTTR 1DP (disease control rating) / LV activity at 125.1 g/H SEPTTR 3DC (disease control rating): A: > 80; B: ≤ 80; C: Not Tested; D: No Activity Observed in the Reported Assay", "conditions": "for SEPTTR 1DP disease control rating, HV activity at 100 ppm / SEPTTR 3DC disease control rating, HV activity at 100 ppm: high volume application; for SEPTTR 1DP disease control rating, HV activity at 100 ppm / SEPTTR 1DP disease control rating, LV activity at 125.1 g/H: 1 day protectant; for SEPTTR 3DC disease control rating, HV activity at 100 ppm / SEPTTR 3DC disease control rating, LV activity at 125.1 g/H: 3 day curative; for SEPTTR 1DP disease control rating, LV activity at 125.1 g/H / SEPTTR 3DC disease control rating, LV activity at 125.1 g/H / LV activity at 125.1 g/H SEPTTR 1DP (disease control rating) / LV activity at 125.1 g/H SEPTTR 3DC (disease control rating): low volume application; for SEPTTR 1DP disease control rating, HV activity / SEPTTR 3DC disease control rating, HV activity: HV application at 100 ppm"}, "Puccinia triticina": {"system": "Puccinia triticina", "test": "Wheat brown rust (PUCCRT) disease control on wheat seedlings", "assay_type": "in vivo", "parameters": "key to PUCCRT 3DC, HV activity at 100 ppm (% control rating) / PUCCRT disease control, 3DC / PUCCRT 1DP disease control rating, HV activity / PUCCRT 3DC disease control rating, HV activity / PUCCRT 3DC, LV activity at 125.1 g/H (% Control rating) / PUCCRT 1DP, LV activity at 125.1 g/H (% Control rating) / PUCCRT 3DC disease control rating, LV activity at 125.1 g/H / PUCCRT 1DP disease control rating, LV activity at 125.1 g/H / PUCCRT 3DC disease control rating, HV activity at 100 ppm / PUCCRT 1DP disease control rating, HV activity at 100 ppm / HV activity at 100 ppm PUCCRT 3DC (disease control rating) / LV activity at 125.1 g/H PUCCRT 1DP (disease control rating) / LV activity at 125.1 g/H PUCCRT 3DC (disease control rating): A: > 80; B: ≤ 80; C: Not Tested; D: No Activity Observed in the Reported Assay", "conditions": "for PUCCRT 1DP disease control rating, HV activity at 100 ppm / PUCCRT 3DC disease control rating, HV activity at 100 ppm: high volume application; for PUCCRT 1DP disease control rating, HV activity at 100 ppm / PUCCRT 1DP disease control rating, LV activity at 125.1 g/H: 1 day protectant; for PUCCRT 3DC disease control rating, HV activity at 100 ppm / PUCCRT 3DC disease control rating, LV activity at 125.1 g/H: 3 day curative; for PUCCRT 1DP disease control rating, LV activity at 125.1 g/H / PUCCRT 3DC disease control rating, LV activity at 125.1 g/H / LV activity at 125.1 g/H PUCCRT 1DP (disease control rating) / LV activity at 125.1 g/H PUCCRT 3DC (disease control rating): low volume application; for PUCCRT 1DP disease control rating, HV activity / PUCCRT 3DC disease control rating, HV activity: HV application at 100 ppm"}, "[1]": {"conditions": "1 Day Protectant, wheat leaf blotch"}, "[2]": {"conditions": "3 Day Curative, wheat leaf blotch"}, "[3]": {"conditions": "1 Day Protectant, wheat brown rust"}, "[4]": {"conditions": "3 Day Curative, wheat brown rust"}}, "data": [{"smiles": "COc1ccnc(C(=O)NC(C)C(=O)OC(C)C(OC)c2ccccc2)c1O", "note": "(stereo not drawn) [Cmpd 823]", "values": [{"measurement": "SEPTTR 1DP disease control rating, HV activity at 100 ppm", "setting": "Zymoseptoria tritici; 100 ppm", "value": "D"}, {"measurement": "SEPTTR 3DC disease control rating, HV activity at 100 ppm", "setting": "Zymoseptoria tritici; 100 ppm", "value": "B (≤ 80)"}, {"measurement": "PUCCRT 1DP disease control rating, HV activity at 100 ppm", "setting": "Puccinia triticina; 100 ppm", "value": "B (≤ 80)"}, {"measurement": "PUCCRT 3DC disease control rating, HV activity at 100 ppm", "setting": "Puccinia triticina; 100 ppm", "value": "A (> 80)"}]}, {"smiles": "COc1ccnc(C(=O)N[C@@H](C)C(=O)O[C@@H](C)[C@@H](Oc2cccc(Cl)c2)C(C)C)c1OCOC(C)=O", "note": "[Cmpd 852]", "values": [{"measurement": "SEPTTR 1DP disease control rating, LV activity at 125.1 g/H", "setting": "Zymoseptoria tritici", "value": "B (≤ 80)"}, {"measurement": "SEPTTR 3DC disease control rating, LV activity at 125.1 g/H", "setting": "Zymoseptoria tritici", "value": "A (> 80)"}, {"measurement": "PUCCRT 1DP disease control rating, LV activity at 125.1 g/H", "setting": "Puccinia triticina", "value": "A (> 80)"}, {"measurement": "PUCCRT 3DC disease control rating, LV activity at 125.1 g/H", "setting": "Puccinia triticina", "value": "A (> 80)"}]}, {"smiles": "COc1ccnc(C(=O)NCC(=O)OC(C)C(Oc2ccccc2)C(C)C)c1OCOC(C)=O", "note": "(stereo not drawn) [Cmpd 862]", "values": [{"measurement": "SEPTTR 1DP disease control rating, LV activity at 125.1 g/H", "setting": "Zymoseptoria tritici", "value": "D"}, {"measurement": "SEPTTR 3DC disease control rating, LV activity at 125.1 g/H", "setting": "Zymoseptoria tritici", "value": "D"}, {"measurement": "PUCCRT 1DP disease control rating, LV activity at 125.1 g/H", "setting": "Puccinia triticina", "value": "A (> 80)"}, {"measurement": "PUCCRT 3DC disease control rating, LV activity at 125.1 g/H", "setting": "Puccinia triticina", "value": "A (> 80)"}]}, {"smiles": "COc1ccnc(C(=O)N[C@@H](C)C(=O)O[C@H](C)[C@@H](Oc2ccccc2)c2ccccc2)c1O", "note": "[Cmpd 350]", "values": [{"measurement": "SEPTTR 1DP disease control rating, HV activity", "setting": "Zymoseptoria tritici; [1]", "value": "D"}, {"measurement": "SEPTTR 3DC disease control rating, HV activity", "setting": "Zymoseptoria tritici; [2]", "value": "B (≤ 80)"}, {"measurement": "PUCCRT 1DP disease control rating, HV activity", "setting": "Puccinia triticina; [3]", "value": "D"}, {"measurement": "PUCCRT 3DC disease control rating, HV activity", "setting": "Puccinia triticina; [4]", "value": "A (> 80)"}]}, {"smiles": "C=CC(OC(=O)C(C)NC(=O)c1nccc(OC)c1O)C(Oc1ccccc1)C(C)C", "note": "(stereo not drawn) [Cmpd 1033]", "values": [{"measurement": "HV activity at 100 ppm SEPTTR 1DP (disease control rating)", "setting": "Zymoseptoria tritici; HV application, 100 ppm, 1 Day Protectant, wheat leaf blotch", "value": "A (> 80)"}, {"measurement": "HV activity at 100 ppm SEPTTR 3DC (disease control rating)", "setting": "Zymoseptoria tritici; HV application, 100 ppm, 3 Day Curative, wheat leaf blotch", "value": "B (≤ 80)"}, {"measurement": "HV activity at 100 ppm PUCCRT 1DP (disease control rating)", "setting": "Puccinia triticina; HV application, 100 ppm, 1 Day Protectant, wheat brown rust", "value": "A (> 80)"}, {"measurement": "HV activity at 100 ppm PUCCRT 3DC (disease control rating)", "setting": "Puccinia triticina; HV application, 100 ppm, 3 Day Curative, wheat brown rust", "value": "A (> 80)"}]}, {"smiles": "COc1ccnc(C(=O)NC(C)C(=O)OC(C(C)C)C(Oc2ccccc2)C(C)C)c1OCOC(C)=O", "note": "(stereo not drawn) [Cmpd 1094]", "values": [{"measurement": "LV activity at 125.1 g/H SEPTTR 1DP (disease control rating)", "setting": "Zymoseptoria tritici; [1]", "value": "D"}, {"measurement": "LV activity at 125.1 g/H SEPTTR 3DC (disease control rating)", "setting": "Zymoseptoria tritici; [2]", "value": "D"}, {"measurement": "LV activity at 125.1 g/H PUCCRT 1DP (disease control rating)", "setting": "Puccinia triticina; [3]", "value": "D"}, {"measurement": "LV activity at 125.1 g/H PUCCRT 3DC (disease control rating)", "setting": "Puccinia triticina; [4]", "value": "D"}]}, {"smiles": "COc1ccnc(C(=O)NC(C)C(=O)OC(C)C(Oc2cccc(Cl)c2)C(C)C)c1O", "note": "(stereo not drawn) [Cmpd 432]", "values": [{"measurement": "SEPTTR 1DP disease control rating, HV activity", "setting": "Zymoseptoria tritici; [1]", "value": "A (> 80)"}, {"measurement": "SEPTTR 3DC disease control rating, HV activity", "setting": "Zymoseptoria tritici; [2]", "value": "D"}, {"measurement": "PUCCRT 1DP disease control rating, HV activity", "setting": "Puccinia triticina; [3]", "value": "A (> 80)"}, {"measurement": "PUCCRT 3DC disease control rating, HV activity", "setting": "Puccinia triticina; [4]", "value": "B (≤ 80)"}]}, {"smiles": "CCC(CC)[C@H](Oc1cc(F)cc(Cl)c1)[C@H](C)OC(=O)[C@H](C)NC(=O)c1nccc(OC)c1OCOC(C)=O", "note": "[Cmpd 672]", "values": [{"measurement": "SEPTTR 1DP disease control rating, LV activity at 125.1 g/H", "setting": "Zymoseptoria tritici", "value": "A (> 80)"}, {"measurement": "SEPTTR 3DC disease control rating, LV activity at 125.1 g/H", "setting": "Zymoseptoria tritici", "value": "B (≤ 80)"}, {"measurement": "PUCCRT 1DP disease control rating, LV activity at 125.1 g/H", "setting": "Puccinia triticina", "value": "A (> 80)"}, {"measurement": "PUCCRT 3DC disease control rating, LV activity at 125.1 g/H", "setting": "Puccinia triticina", "value": "B (≤ 80)"}]}, {"smiles": "COc1ccnc(C(=O)N[C@@H](C)C(=O)O[C@@H](C)[C@@H](Oc2cccc3ccccc23)C(C)C)c1OCOC(C)=O", "note": "[Cmpd 854]", "values": [{"measurement": "SEPTTR 1DP disease control rating, LV activity at 125.1 g/H", "setting": "Zymoseptoria tritici", "value": "B (≤ 80)"}, {"measurement": "SEPTTR 3DC disease control rating, LV activity at 125.1 g/H", "setting": "Zymoseptoria tritici", "value": "A (> 80)"}, {"measurement": "PUCCRT 1DP disease control rating, LV activity at 125.1 g/H", "setting": "Puccinia triticina", "value": "A (> 80)"}, {"measurement": "PUCCRT 3DC disease control rating, LV activity at 125.1 g/H", "setting": "Puccinia triticina", "value": "B (≤ 80)"}]}, {"smiles": "COc1ccnc(C(=O)N[C@@H](C)C(=O)O[C@@H](C)[C@H](OCC(C)C)C2CCCC2)c1OC(C)=O", "note": "[Cmpd 922]", "values": [{"measurement": "SEPTTR 1DP disease control rating, LV activity at 125.1 g/H", "setting": "Zymoseptoria tritici", "value": "A (> 80)"}, {"measurement": "SEPTTR 3DC disease control rating, LV activity at 125.1 g/H", "setting": "Zymoseptoria tritici", "value": "B (≤ 80)"}, {"measurement": "PUCCRT 1DP disease control rating, LV activity at 125.1 g/H", "setting": "Puccinia triticina", "value": "A (> 80)"}, {"measurement": "PUCCRT 3DC disease control rating, LV activity at 125.1 g/H", "setting": "Puccinia triticina", "value": "A (> 80)"}]}, {"smiles": "COc1ccnc(C(=O)NC(C)C(=O)OC(C)C(Oc2ccc(Cl)cc2Cl)c2ccccc2)c1O", "note": "(stereo not drawn) [Cmpd 817]", "values": [{"measurement": "SEPTTR 1DP disease control rating, HV activity at 100 ppm", "setting": "Zymoseptoria tritici; 100 ppm", "value": "A (> 80)"}, {"measurement": "SEPTTR 3DC disease control rating, HV activity at 100 ppm", "setting": "Zymoseptoria tritici; 100 ppm", "value": "B (≤ 80)"}, {"measurement": "PUCCRT 1DP disease control rating, HV activity at 100 ppm", "setting": "Puccinia triticina; 100 ppm", "value": "A (> 80)"}, {"measurement": "PUCCRT 3DC disease control rating, HV activity at 100 ppm", "setting": "Puccinia triticina; 100 ppm", "value": "A (> 80)"}]}, {"smiles": "COc1cc(O[C@H](C2CC2)[C@H](C)OC(=O)[C@H](C)NC(=O)c2nccc(OC)c2OC(C)=O)ccc1Cl", "note": "[Cmpd 1069]", "values": [{"measurement": "LV activity at 125.1 g/H SEPTTR 1DP (disease control rating)", "setting": "Zymoseptoria tritici; [1]", "value": "B (≤ 80)"}, {"measurement": "LV activity at 125.1 g/H SEPTTR 3DC (disease control rating)", "setting": "Zymoseptoria tritici; [2]", "value": "B (≤ 80)"}, {"measurement": "LV activity at 125.1 g/H PUCCRT 1DP (disease control rating)", "setting": "Puccinia triticina; [3]", "value": "A (> 80)"}, {"measurement": "LV activity at 125.1 g/H PUCCRT 3DC (disease control rating)", "setting": "Puccinia triticina; [4]", "value": "A (> 80)"}]}]}
